# Reference: patent US20230127046A1, “G9a INHIBITOR” (RIKEN, priority 2019, published 2023)
# pIC50: −log10 of the molar value.
# Target: T1, recombinant human G9a protein (Homo sapiens, UniProt Q96KQ7)
# T1 construct: purchased BPS Bioscience Inc. #51001
# T1 sequence (Q96KQ7 785-1210 limits assumed): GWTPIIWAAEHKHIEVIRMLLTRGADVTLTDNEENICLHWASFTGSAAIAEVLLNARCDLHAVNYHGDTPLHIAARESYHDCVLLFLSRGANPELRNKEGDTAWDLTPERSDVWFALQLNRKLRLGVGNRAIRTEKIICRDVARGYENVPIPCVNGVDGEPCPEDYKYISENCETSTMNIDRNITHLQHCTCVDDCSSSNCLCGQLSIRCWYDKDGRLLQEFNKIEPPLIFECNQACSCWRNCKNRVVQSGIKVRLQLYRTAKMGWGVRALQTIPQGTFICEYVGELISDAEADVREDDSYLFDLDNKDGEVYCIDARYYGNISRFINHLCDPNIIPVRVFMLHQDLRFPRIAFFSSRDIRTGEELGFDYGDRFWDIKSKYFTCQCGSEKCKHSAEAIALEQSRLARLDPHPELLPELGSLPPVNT
# Assay: G9a inhibitory activity test (ALPHA)
# Format: biochemical
# Conditions: biotinylated histone H3 peptide (1-21), SAM, read-out: Inhibitory activity (G9a IC50 value)
# Experimental: The G9a inhibitory activity of each compound was evaluated by measuring the enzymatic activity of G9a by amplified luminescence proximity homogeneous assay (ALPHA). First, 7.5 μL of a dilution of recombinant human G9a protein (BPS Bioscience Inc., #51001) diluted to 0.05 to 0.1 nM with a Tris buffer solution (50 mM Tris-HCl [pH 9.0], 50 mM NaCl, 0.01% Tween-20, 1 mM DTT), and 0.5 μL of the test compound were added to each well of a 384-well microplate (AlphaPlate-384 Shallow Well, PerkinElmer, Inc., #6008359), mixed by vortex, and incubated at room temperature for 10 minutes. 500 nM biotinylated histone H3 peptide (1-21) (AnaSpec Inc., #61702) and 150 μM SAM (Sigma-Aldrich Co. LLC, #A7007) were mixed at 1:1 in advance, and 2 μL of the mixture was added to each well, mixed by vortex, and then incubated at room temperature for 1 hour. AlphaLISA anti-H3K9me2 acceptor beads (PerkinElmer, Inc., #AL117C) and AlphaScreen streptavidin donor beads (PerkinElmer, Inc., #6760002B) were each diluted with an epigenetic buffer (PerkinElmer, Inc., AlphaLISA Epigenetics Buffer Kit #AL008C) to a final concentration of […] after addition. These dilutions were added to the reaction solution in the dark and incubated at room temperature for 1 hour in the dark. Then, measurement was performed using the EnSpire Alpha plate reader (PerkinElmer, Inc., Waltham, Mass., USA). The G9a inhibitory activity of the test compound was calculated as a compound concentration necessary for suppressing G9a enzymatic activity by 50% (IC50 value), by determining the percent inhibition of the compound when the value of a control without the addition of the compound was defined as 0% and the value of a control without the addition of the enzyme was defined as 100%.
row,pIC50,Compound
1,6.70 to 7.30,CCCCC(NC(=O)c1[nH]c2c(c1C)C(=O)CC(C)(C)C2)C(=O)Nc1ccccc1CC (stereo not drawn) [Example 1-23]
2,> 7.30,O=C(NC(CCC1CC1)C(=O)Nc1ccc(OC2COC2)nc1)c1ccc(Nc2ccncc2)cc1 (stereo not drawn) [Example 1-88]
3,≤ 6.70,CCc1nc(C)ccc1NC(=O)C(CCC1CC1)NC(=O)c1[nH]c2c(c1C)C(=O)CC(C)(C)C2 (stereo not drawn) [Example 1-75]
4,> 7.30,CCCCC(NC(=O)c1[nH]c2c(c1C)C(=O)CC(C)(C)C2)C(=O)Nc1ccc(NC2CCN(C)CC2)nc1 (stereo not drawn) [Example 1-5]
5,≤ 6.70,CCCCC(NC(=O)c1[nH]c2c(c1C)C(=O)CC(C)(C)C2)C(=O)Nc1cccc(C(=O)OC)c1C (stereo not drawn) [Example 1-106]
6,> 7.30,CCCCC(NC(=O)c1[nH]c2c(c1C)C(=O)CC(C)(C)C2)C(=O)Nc1ccc2[nH]cc(CN(C)C)c2c1 (stereo not drawn) [Example 1-100]
7,≤ 6.70,Cc1ccc2c(c1)CCN2C(=O)C(CCC1CC1)NC(=O)c1[nH]c2c(c1C)C(=O)CC(C)(C)C2 (stereo not drawn) [Example 1-77]
8,≤ 6.70,CCCCC(NC(=O)c1[nH]c2c(c1C)C(=O)CC(C)(C)C2)C(=O)NC1CCCCC1 (stereo not drawn) [Example 1-24]
9,≤ 6.70,CCCCC(NC(=O)c1[nH]c2c(c1C)C(=O)CC(C)(C)C2)C(=O)Nc1cccc2ccccc12 (stereo not drawn) [Example 1-31]
10,≤ 6.70,CCCCC(NC(=O)c1[nH]c2c(c1C)C(=O)CC(C)(C)C2)C(=O)Nc1cccc(Cl)c1C (stereo not drawn) [Example 1-30]
11,≤ 6.70,CCCCC(NC(=O)c1[nH]c2c(c1C)C(=O)CC(C)(C)C2)C(=O)Nc1cccc(C)c1C (stereo not drawn) [Example 1-25]
12,≤ 6.70,CCCCC(NC(=O)c1[nH]c2c(c1C)C(=O)CC(C)(C)C2)C(=O)Nc1cccc(CN2CCOCC2)c1 (stereo not drawn) [Example 1-99]
13,≤ 6.70,COCc1ccc(NC(=O)C(CCC2CC2)NC(=O)c2[nH]c3c(c2C)C(=O)CC(C)(C)C3)cn1 (stereo not drawn) [Example 1-60]
14,≤ 6.70,CCCCC(NC(=O)c1[nH]c2c(c1C)C(=O)CC(C)(C)C2)C(=O)Nc1cccc2ncccc12 (stereo not drawn) [Example 1-14]
15,6.70 to 7.30,CCCCC(NC(=O)c1[nH]c2c(c1C)C(=O)CC(C)(C)C2)C(=O)Nc1ccccc1SCC (stereo not drawn) [Example 1-16]

# Same assay, conditions: read-out: Inhibitory activity (G9a IC50)
row,pIC50,Compound
1,> 7.30,CCCCC(NC(=O)c1[nH]c2c(c1C)C(=O)CC(C)(C)C2)C(=O)NCc1ccc(CN2CCCC2)cc1 (stereo not drawn) [Example 18-11]
2,> 7.30,COc1ccc(NC(=O)C(CCC2CC2)NC(=O)c2ccc(Nc3ccncc3C)cc2)cn1 (stereo not drawn) [Example 6-65]
3,6.70 to 7.30,CCc1c(C(=O)N[C@@H](CCC2CC2)C(=O)Nc2ccc(C#N)cc2)[nH]c2c1C(=O)CC(C)(C)C2 [Example 15-3]
4,≤ 6.70,COc1ccc(NC(=O)C(CCC2CC2)NC(=O)c2ccc(C3CCN(C)CC3)cc2)cn1 (stereo not drawn) [Example 6-69]
5,≤ 6.70,CSCC[C@H](NC(=O)c1[nH]c2c(c1C)C(=O)CC(C)(C)C2)C(=O)Nc1ccccc1 [Example 6-90]
6,≤ 6.70,Cc1c(C(=O)NC(CCC2CC2)C(=O)Nc2ccc(C#N)nc2)[nH]c2c1C(=O)CC(C)(C)C2 (stereo not drawn) [Example 6-13]
7,6.70 to 7.30,Cc1c(C(=O)NC(CCC2CC2)C(=O)Nc2ccc(C(F)(F)F)nc2)[nH]c2c1C(=O)CC(C)(C)C2 (stereo not drawn) [Example 6-8]
8,≤ 6.70,CCCCC(NC(=O)Cc1ccc(C)cc1)C(=O)Nc1ccc(OC2CCN(C)CC2)nc1 (stereo not drawn) [Example 11-8]
9,≤ 6.70,Cc1c(C(=O)NC(CCC2CC2)C(=O)N2CCc3cc(N4CCOCC4)ccc32)[nH]c2c1C(=O)CC(C)(C)C2 (stereo not drawn) [Example 1-147]
10,≤ 6.70,Cc1cccc2c1CCN2C(=O)C(CCC1CC1)NC(=O)c1[nH]c2c(c1C)C(=O)CC(C)(C)C2 (stereo not drawn) [Example 1-116]
11,> 7.30,O=C(NC(CCC1CC1)C(=O)Nc1ccc(C(F)(F)F)nc1)c1ccc(Nc2ccncc2)cc1 (stereo not drawn) [Example 6-81]
12,≤ 6.70,Cc1c(C(=O)NC(CCC2CC2)c2nc3ccc(CN(C)C)cc3n2C)[nH]c2c1C(=O)CC(C)(C)C2 (stereo not drawn) [Example 31-2]
13,≤ 6.70,"CCCC[C@H](NC(=O)c1[nH]c2c(c1C)C(=O)CC(C)(C)C2)c1nc2ccc(OCCCN(C)C)cc2[nH]1 [Example 34-1, (S)-N-(1-(6-(3-(dimethylamino)propyloxy)-1H-benzo[d]imidazol-2-yl)pentyl)-3,6,6-trimethyl-4-oxo-4,5,6,7-tetrahydro-1H-indole-2-carboxamide]"
14,6.70 to 7.30,CC(C)c1c(C(=O)NC(CCC2CC2)C(=O)N2CCc3c(OCCN(C)C)cccc32)[nH]c2c1C(=O)CC(C)(C)C2 (stereo not drawn) [Example 1-142]
15,6.70 to 7.30,CCCCC(NC(=O)c1sc(-c2ccccc2)nc1C(F)(F)F)C(=O)Nc1ccc(OC2CCN(C)CC2)nc1 (stereo not drawn) [Example 11-3]
16,≤ 6.70,"COc1ccc(NC(=O)C(CCC2CC2)NC(=O)Cc2ccccc2)cn1 (stereo not drawn) [Example 8, 4-cyclopropyl-N-(6-methoxypyridin-3-yl)-2-[(2-phenylacetyl)amino]butaneamide]"
17,≤ 6.70,CCCC[C@H](NC(=O)c1[nH]c2c(c1C)C(=O)CC(C)(C)C2)c1nc2ccc(OCCN3CCCC3)cc2[nH]1 [Example 37-3]

row,pIC50,Compound
1,≤ 6.70,COc1ccc(NC(=O)C(CCC2CC2)NC(=O)Cc2cccc3ccccc23)cn1 (stereo not drawn) [Example 6-53]
2,≤ 6.70,COc1ccc(NC(=O)C(CCC2CC2)NC(=O)c2ccc(NC3CCN(C)CC3)cc2)cn1 (stereo not drawn) [Example 6-59]
3,6.70 to 7.30,CCc1ncccc1NC(=O)C(CCC1CC1)NC(=O)c1[nH]c2c(c1C)C(=O)CC(C)(C)C2 (stereo not drawn) [Example 6-6]
4,> 7.30,CCCC[C@H](NC(=O)c1[nH]c2c(c1C)C(=O)CC(C)(C)C2)C(=O)Nc1ccc(OC2CCN(C)CC2)nc1 [Example 6-31]
5,≤ 6.70,CCCC[C@H](NC(=O)c1[nH]c2c(c1C)C(=O)CC(C)(C)C2)C(=O)N1CCc2c(OCCN3CCCCC3)cccc21 [Example 6-104]
6,6.70 to 7.30,Cc1cc(C)c(NC(=O)C(CCC2CC2)NC(=O)c2[nH]c3c(c2C)C(=O)CC(C)(C)C3)cn1 (stereo not drawn) [Example 6-14]
7,> 7.30,"CCc1cc(C)ccc1NC(=O)C(CCC1CC1)NC(=O)c1[nH]c2c(c1C)C(=O)CC(C)(C)C2 (stereo not drawn) [Example 14-1, N-[4-cyclopropyl-1-(2-ethyl-4-methylamino)-1-oxobutan-2-yl]-3,6,6-trimethyl-4-oxo-5,7-dihydro-1H-indole-2-carboxamide]"
8,≤ 6.70,COc1ccc(NC(=O)C(CCC2CC2)NC(=O)c2ccc(Nc3ccncc3)nc2)cn1 (stereo not drawn) [Example 6-56]
9,≤ 6.70,COc1ccc2c(c1)CCN2C(=O)C(CCC1CC1)NC(=O)c1[nH]c2c(c1C)C(=O)CC(C)(C)C2 (stereo not drawn) [Example 1-130]
10,≤ 6.70,CCCC[C@H](NC(=O)c1[nH]c2c(c1C)C(=O)CC(C)(C)C2)c1nc2ccc(OC3CCN(C)CC3)cc2[nH]1 [Example 34-4]
11,≤ 6.70,Cc1c(C(=O)NC(CCC2CC2)C(=O)N2CCc3c(CN4CCOCC4)cccc32)[nH]c2c1C(=O)CC(C)(C)C2 (stereo not drawn) [Example 1-144]
12,6.70 to 7.30,Cc1c(C(=O)N[C@@H](CCC2CC2)C(=O)NC2CCN(C)CC2)[nH]c2c1C(=O)CC(C)(C)C2 [Example 6-27]
13,≤ 6.70,CCCCC(NC(=O)c1[nH]c2c(c1C)C(=O)CC(C)(C)C2)C(=O)Nc1ccc2c(c1)CCN(C)C2 (stereo not drawn) [Example 5-2]
14,≤ 6.70,Cc1c(C(=O)NC(CCC2CC2)C(=O)N2CCc3c(O)cccc32)[nH]c2c1C(=O)CC(C)(C)C2 (stereo not drawn) [Example 1-117]
15,≤ 6.70,CCCC[C@@H](CNc1ccc(N2CCN(C)CC2)cc1)NC(=O)c1[nH]c2c(c1C)C(=O)CC(C)(C)C2 [Example 17-2]
16,> 7.30,Cc1c(C(=O)NC(CCC2CC2)C(=O)Nc2cccc(CN(C)C)c2)[nH]c2c1C(=O)CC(C)(C)C2 (stereo not drawn) [Example 1-137]
